Data: paper PMC9013686, “Inter-individual variation in chlorpyrifos toxicokinetics characterized by physiologically based kinetic (PBK) and Monte Carlo simulation comparing human liver microsome and Supersome™ cytochromes P450 (CYP)-specific kinetic data as model input” (Archives of Toxicology, 2022)
Where two headings read alike, the source gives them in different places.

Legend:
RBC AChE = conditions: ref USEPA (2014); cited from earlier work
CYP3A4 = CYP3A4 (Homo sapiens, UniProt P08684); test: Supersome CYP3A4 kinetic incubations; assay type: in vitro ADME; set-up: purchased Corning (Amsterdam, The Netherlands); host or cells: baculovirus-transfected insect cells; conditions: for Scaled Vmax(app): CYP3A4 scaled to whole liver by Eq. 3; for Vmax (app) / Km: Supersome CYP3A4
Sequence of CYP3A4 (P08684 2-503 limits assumed): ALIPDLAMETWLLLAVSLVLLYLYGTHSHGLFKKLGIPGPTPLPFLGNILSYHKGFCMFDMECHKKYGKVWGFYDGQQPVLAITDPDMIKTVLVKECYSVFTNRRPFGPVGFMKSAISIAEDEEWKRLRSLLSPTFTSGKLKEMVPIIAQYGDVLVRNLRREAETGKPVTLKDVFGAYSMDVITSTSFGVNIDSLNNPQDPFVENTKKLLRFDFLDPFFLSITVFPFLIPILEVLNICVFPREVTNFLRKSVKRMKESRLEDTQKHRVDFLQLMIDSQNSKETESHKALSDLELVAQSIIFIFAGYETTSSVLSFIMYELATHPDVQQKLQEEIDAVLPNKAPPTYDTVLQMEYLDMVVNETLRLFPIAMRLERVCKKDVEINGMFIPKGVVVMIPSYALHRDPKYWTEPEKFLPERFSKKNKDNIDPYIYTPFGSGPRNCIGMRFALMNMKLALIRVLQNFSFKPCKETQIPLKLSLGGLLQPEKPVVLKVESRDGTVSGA
Procedure: The final incubations were carried out in 50 mM Tris–HCl (pH 7.4) containing 5 mM MgCl2, 1 mM EDTA (as an A-esterase PON1 inhibitor) (Bizoń and Milnerowicz [2018]), 50 µM iso-OMPA (as a B-esterases inhibitor) (Lane et al. [2006]), Supersome™ isoform (at final concentration of 0.005 nmol CYP/ml for 1A2, 0.001 nmol CYP/ml for 2B6, 0.01 nmol CYP/ml for 2C19, and 0.01 nmol CYP/ml for 3A4) and CPF at different final concentrations (0.05, 0.1, 0.25, 0.5, 1, 5 and 10 µM for 1A2, 0.05, 0.1, 0.25, 0.5, 1, 5 10 and 25 µM for 2B6, 1, 2.5, 5, 10, 25 and 50 µM for 2C19, and 0.5, 1, 2.5, 5, 10, 25 and 50 µM for 3A4), which were added from 100 times concentrated stock solutions in ACN. After 1 min preincubation in a 37 °C water bath, 5 µl NADPH (final concentration 1 mM) was added to the incubation system. Control incubations were performed by replacing NADPH with the same amount of Tris–HCl (pH 7.4). The total volume of the incubation mixtures was 200 µl. The incubations lasted for 2 min at 37 °C and were terminated by addition of 50 µl ice cold ACN and subsquently put on ice. After that, samples were centrifuged at 16,000 g (4 ℃) for 5 min and supernatants of samples were separated into two equal portions for Ultra-Performance Liquid Chromatography-Photodiode Array (UPLC-PDA) and Liquid Chromatography Mass Spectrometry (LC–MS/MS) analysis, respectively.
To normalize for differences in intrinsic CYP activity between Supersome™ and pooled HLMs and enable scaling of the activities to the in vivo situation, CYP-specific ISEF values need to be established. […] The incubation method was similar as used for the CPF kinetic incubation assay described above, except that certain incubation conditions were replaced by the conditions listed in Table 1. The samples obtained were analyzed by UPLC-PDA for acetaminophen, 4-hydroxymephenytoin, and 6β-hydroxytestosterone formation catalyzed by 1A2, 2C19 and 3A4, or LC–MS/MS for (±)-hydroxybupropion formation catalyzed by 2B6.
As mentioned before, the in vitro apparent kinetic parameters (Vmax and Km) for pathway 1 and pathway 2 in the HLM-based approach, and pathway 3 in both approaches were all obtained directly from reported studies using pooled HLMs (Buratti et al. [2003]; Sams et al. [2004]; Zhao et al. [2019]). Therefore, no extra calculations were required to define these parameters. The kinetic parameters for the ISEF calculation, pathway 1 and 2 in the Supersome™-based approach, and pathway 4 in both approaches (25 individuals) were all obtained by fitting the experimental data to the Michaelis–Menten model using GraphPad (GraphPad Prism 5.0 software, San Diego, CA, USA). It should be noted that the kinetic parameters for pathway 4 used in the two approaches were calculated as mean of the kinetic parameters (Vmax and Km) obtained using 25 individual HP samples (with correction for total protein concentration of each plasma sample).
The in vivo Kmi values were assumed to be equal to the apparent Kmi(app) values (µM) obtained in the in vitro incubations, while the in vivo Vmaxi for each CYP isoform was derived from their corresponding apparent CYP isoform Vmaxi(app) (pmol/min/pmolCYP) using Eq. 3:3 Vmaxi=Vmaxiapp×CYPiabundance×ISEF×60×MPL×1000×VL/1,000,000,

What does the source list for CCOP(=S)(OCC)Oc1nc(Cl)c(Cl)cc1Cl [CPF, Chlorpyrifos]?
BMDL10 (EPA, derived from human PBPK-PD model) (RBC AChE): 0.47 mg/kg bw; Scaled Vmax(app) (CYP3A4; Pathway 1 (CPF to CPO)): 910.77 µmol/h; Vmax (app) (CYP3A4; Pathway 1 (CPF to CPO)): 17.78 pmol/min/pmolCYP; Scaled Vmax(app) (CYP3A4; Pathway 2 (CPF to TCPy)): 1222.21 µmol/h; Vmax (app) (CYP3A4; Pathway 2 (CPF to TCPy)): 23.86 pmol/min/pmolCYP; Km (CYP3A4; human, recombinant CYP3A4 Supersomes, pH 7.4, Km(app), Pathway 1 (bioactivation of CPF to CPO)): 29.8 µM; Km (CYP3A4; human, recombinant CYP3A4 Supersomes, pH 7.4, Km(app), Pathway 2 (detoxification of CPF to TCPy)): 18.1 µM; Km (CYP3A4; read-out: Km(app), Pathway 1 (bioactivation of CPF to CPO)): 29.8 µM
